Test results from patent US9260504B2, “N- and C-terminal substituted antagonistic analogs of GH-RH” (University of Miami, priority 2008, dated 2016).

How the values were obtained:
Format in all cases: in vivo
[1] = test system: PC-3 human hormone-independent prostate cancer; assay: PC-3 human prostate cancer xenografts in nude mice, Experiment 3; conditions: 2 μg/day s.c., 28 days
Description: (§1) Male nude mice were implanted s.c. with 3 mm^3 pieces of PC-3 human hormone-independent prostate cancer tissue on both flanks. When tumors reached a volume of approximately 50 mm^3, the mice were divided into 12 experimental groups with 8 to 10 animals in each group and received single daily injections for 28 days as follows: 1. Control (vehicle solution); 2. JMR-132 (10 μg/day s.c.); 3. Peptide 11113 (2 μg/day s.c.); 4. Peptide 11119 (2 μg/day s.c.); 5. Peptide 11209 (2 μg/day s.c.); 6. Peptide 11313 (2 μg/day s.c.); 7. Peptide 11408 (2 μg/day s.c.); 8. Peptide 11435 (2 μg/day s.c.); 9. Peptide 11457 (2 μg/day s.c.); 10. Peptide 11459 (2 μg/day s.c.); 11. Peptide 11469 (2 μg/day s.c.); 12. Peptide 11491 (2 μg/day s.c.).
(§2) Tumor volumes were measured once a week. The experiment was ended on day 28 by sacrificing the mice under Isoflurane anesthesia. Resulting tumors were cleaned, weighed, and snap-frozen until further analyses. Statistical analyses of the measurement results were done by two-tailed t-test, p<0.05 being considered significant.

[2] = test system: H-460 human non-small cell lung cancer; assay: H-460 human non-SCLC xenografts in nude mice, Experiment 2; conditions: 5 μg/day s.c.; for Tumor growth after 4 weeks (%): 28 days, means±S.E.; for Inhibition (%): after 4 weeks
Description: Male nude mice were implanted s.c. with 3 mm^3 pieces of H-460 human non-SCLC tumor tissue on both flanks. When tumors had grown to a mean volume of approximately 90 mm^3, the mice were randomly assigned into 12 experimental groups with 8 to 10 animals in each group and received single daily injections for 28 days as follows: 1. Control (vehicle solution); 2. JMR-132 (10 μg/day s.c.); 3. Peptide 11109 (5 μg/day s.c.); 4. Peptide 11113 (5 μg/day s.c.); 5. Peptide 11119 (5 μg/day s.c.); 6. Peptide 11209 (5 μg/day s.c.); 7. Peptide 11313 (5 μg/day s.c.); 8. Peptide 11408 (5 μg/day s.c.); 9. Peptide 11435 (5 μg/day s.c.); 10. Peptide 11459 (5 μg/day s.c.); 11. Peptide 11469 (5 μg/day s.c.); 12. Peptide 11491 (5 μg/day s.c.). Tumor volumes were measured once a week. The experiment was ended on day 28 by sacrificing the mice under Isoflurane anesthesia. Resulting tumors were cleaned, weighed, and snap-frozen until further analyses. Statistical analyses of the measurement results were done by two-tailed t-test, p<0.05 being considered significant. Data are presented as the means±S.E.

[3] = test system: Human ovarian cancer SKOV3 cells; assay: SKOV3 ovarian cancer xenografts in nude mice; conditions: 5 μg/day s.c.
Excerpt: Human ovarian cancer SKOV3 cells growing exponentially were implanted info five female nude mice by subcutaneous (s.c.) injection of 10^7 cells in both flanks. Tumors That resulted after approximately 4 weeks in donor animals were then aseptically dissected and mechanically minced. Three mm^3 pieces of tumor tissue were transplanted subcutaneously into experimental animals with a trocar needle. When tumors reached an appropriate size (approximately 50 mm^3), mice were randomly divided into […]. The first was the control group, the second group was treated with daily s.c. injections of 5 μg P-11313, the third group was treated with daily s.c. injections of 5 μg P-11604, the fourth group was treated with daily s.c. injections of 5 μg P-11610. Tumor volume (length×width×height×0.5236) was measured every week and mean tumor volumes of each group were compared by Student's t-test. The study lasted 49 days. One week after end of treatment, mice were killed under anesthesia, tumors were snap frozen and stored at −70° C.

[4] = test system: PC-3 human hormone-independent prostate cancer; assay: PC-3 human prostate cancer xenografts in nude mice, Experiment 4; conditions: for Tumor growth after 28 days (%) / Tumor growth after 46 days (%) / Inhibition (%): 2 μg/day s.c.
Description: as §1, §2
All experimental details of Experiment 4 are the same as for Experiment 3, with the following difference. When tumors reached a volume of approximately 50 mm^3, the mice were divided into 11 experimental groups with 8 to 10 animals in each group and received single daily injections for 46 days as follows: 1. Control (vehicle solution); 2. JMR-132 (10 μg/day s.c.); 3. Peptide 11123 (2 μg/day s.c.); 4. Peptide 11125 (2 μg/day s.c.); 5. Peptide 11213 (2 μg/day s.c.); 6. Peptide 11433 (2 μg/day s.c.); 7. Peptide 11473 (2 μg/day s.c.); 8. Peptide 11485 (2 μg/day s.c.); 9. Peptide 11497 (2 μg/day s.c.); 10. Peptide 11499 (2 μg/day s.c.); 11. Peptide 11521 (2 μg/day s.c.). Tumor volumes were measured once a week. The experiment was ended on day 46 by sacrificing the mice under Isoflurane anesthesia. Resulting tumors were cleaned, weighed, and snap-frozen until further analyses. Statistical analyses of the measurement results were done by two-tailed t-test, p<0.05 being considered significant.

[5] = test system: H-460 human non-small cell lung cancer; assay: H-460 human non-SCLC xenografts in nude mice, Experiment 3; conditions: 28 days; for Tumor growth inhibition after 4 weeks (%): 5 μg/day s.c.; for Inhibition of H-460 lung tumor growth compared with reference peptide JMR-132: 5 μg/day vs JMR-132 10 μg/day
Description: Male nude mice were implanted s.c. with 3 mm^3 pieces of H-460 human non-SCLC tumor tissue on both flanks. When tumors had grown to a mean volume of approximately 90 mm^3, the mice were randomly assigned into 8 experimental groups with 8 to 10 animals in each group and received single daily injections for 28 days as follows: 1. Control (vehicle solution); 2. JMR-132 (10 μg/day s.c.); 3. Peptide 11123 (5 μg/day s.c.); 4. Peptide 11125 (5 μg/day s.c.); 5. Peptide 11307 (5 μg/day s.c.); 6. Peptide 11317 (5 μg/day s.c.); 7. Peptide 11473 (5 μg/day s.c.); 8. Peptide 11485 (5 μg/day s.c.). Tumor volumes were measured once a week. The experiment was ended on day 28 by sacrificing the mice under Isoflurane anesthesia. Resulting tumors were cleaned, weighed, and snap-frozen until further analyses. Statistical analyses of the measurement results were done by two-tailed t-test, p<0.05 being considered significant.

[PhAc^0-Tyr^1, D-Arg^2, Cpa^6, Ala^8, Har^9, Tyr(Me)^10, His^11, Abu^15, His^20, Nle^27, D-Arg^28, Har^29-Apa^30]hGH-RH(1-29)NH2 [Peptide 11209]
Tumor growth inhibition after 4 weeks (%) [1]: 48.04% | Tumor growth after 4 weeks (%) [2]: 6377 ± 2477% | Inhibition (%) [2]: 19.21%

[(Ac-Ada-D-Phe)^0-Tyr^1, D-Arg^2, Cpa^6, Ala^8, Har^9, Tyr(Me)^10, His^11, Abu^15, His^20, Nle^27, D-Arg^28, Har^29]hGH-RH(1-29)NH2 [Peptide 11119]
Tumor growth inhibition after 4 weeks (%) [1]: 32.03% | Tumor growth after 4 weeks (%) [2]: 5254 ± 1524% | Inhibition (%) [2]: 33.44%

[(Ac-Amc)^0-Tyr^1, D-Arg^2, Cpa^6, Ala^8, Har^9, Tyr(Me)^10, His^11, Orn^12, Abu^15, His^20, Nle^27, D-Arg^28, Har^29-Agm^30]hGH-RH(1-29) [Peptide 11313]
Tumor growth inhibition after 4 weeks (%) [1]: 78.20% | Tumor growth after 4 weeks (%) [2]: 3091 ± 1215% | Inhibition (%) [2]: 60.84% | TU growth (%) ([3]; day 0 (baseline)): 100% | TU growth (%) ([3]; day 7): 147.84% | TU inhibition (%) ([3]; day 7): 31.04% | TU growth (%) ([3]; day 14): 140% | TU inhibition (%) ([3]; day 14): 50.04% | TU growth (%) ([3]; day 21): 196.6% | TU inhibition (%) ([3]; day 21): 63.83% | TU growth (%) ([3]; day 28): 249.65% | TU inhibition (%) ([3]; day 28): 70.35% | TU growth (%) ([3]; day 35): 201.5% | TU inhibition (%) ([3]; day 35): 77.43% | TU growth (%) ([3]; day 42): 274.05% | TU inhibition (%) ([3]; day 42): 77.83% | TU growth (%) ([3]; day 49): 328.63% | TU inhibition (%) ([3]; day 49): 74.16%

[Fer^0-Tyr^1, D-Arg^2, Cpa^6, Ala^8, Har^9, Tyr(Me)^10, His^11, Abu^15, His^20, Nle^27, D-Arg^28, Har^29]hGH-RH(1-29)NH2 [Peptide 11113]
Tumor growth inhibition after 4 weeks (%) [1]: 29.37% | Tumor growth after 4 weeks (%) [2]: 6790 ± 3340% | Inhibition (%) [2]: 13.98%

[(Dca-Ada)^0-Tyr^1, D-Arg^2, (Phe(F)5)^6, Ala^8, Har^9, Tyr(Me)^10, His^11, Orn^12, Abu^15, His^20, Orn^21, Nle^27, D-Arg^28, Har^29]hGH-RH(1-29)NH2 [Peptide 11491]
Tumor growth inhibition after 4 weeks (%) [1]: 72.43% | Tumor growth after 4 weeks (%) [2]: 1926 ± 473% | Inhibition (%) [2]: 75.60%

[(Ac-Ada)^0-Tyr^1, D-Arg^2, Cpa^6, Ala^8, Har^9, Tyr(Me)^10, His^11, Orn^12, Abu^15, His^20, Orn^21, Nle^27, D-Arg^28, Har^29-Ada^30]hGH-RH(1-29)NH2 [Peptide 11469]
Tumor growth inhibition after 4 weeks (%) [1]: 78.07% | Tumor growth after 4 weeks (%) [2]: 4810 ± 1977% | Inhibition (%) [2]: 39.06%

[(CH3—(CH2)10—CO-Ada)^0-Tyr^1, D-Arg^2, Cpa^6, Ala^8, Har^9, Tyr(Me)^10, His^11, Abu^15, His^20, Nle^27, D-Arg^28, Har^29]hGH-RH(1-29)NH2 [Peptide 11125]
Tumor growth after 28 days (%) [4]: 424% | Tumor growth after 46 days (%) [4]: 1009% | Inhibitory effect on PC-3 tumors compared with reference peptide JMR-132 ([4]; 2 μg/day vs JMR-132 10 μg/day, after 46 days of treatment): had a more potent inhibitory effect than reference peptide JMR-132 | Inhibition (%) ([4]; after 28 days): 68.97% | Inhibition (%) ([4]; after 46 days): 69.69% | Tumor growth inhibition after 4 weeks (%) [5]: 33.03% | Inhibition of H-460 lung tumor growth compared with reference peptide JMR-132 [5]: more potently inhibited the growth of H-460 lung tumors than the reference peptide JMR-132

[(PhAc^0-Ada)-Tyr^1, D-Arg^2, Cpa^6, Ala^8, Har^9, Tyr(Me)^10, His^11, Orn^12, Abu^15, His^20, Orn^21, Nle^27, D-Arg^28, Har^29]hGH-RH(1-29)NH2 [Peptide 11459]
Tumor growth inhibition after 4 weeks (%) [1]: 53.60% | Tumor growth after 4 weeks (%) [2]: 2418 ± 923% | Inhibition (%) [2]: 69.36%

[(Ac-Amc)^0-Tyr^1, D-Arg^2, Cpa^6, (Me-Ala)^8, Har^9, Tyr(Me)^10, His^11, Abu^15, His^20, Nle^27, D-Arg^28, Har^29]hGH-RH(1-29)NH2 [Peptide 11408]
Tumor growth inhibition after 4 weeks (%) [1]: 63.61% | Tumor growth after 4 weeks (%) [2]: 3998 ± 1113% | Inhibition (%) [2]: 49.35%

[(Ac-Ada)^0-Tyr^1, D-Arg^2, Cpa^6, Ala^8, Har^9, Tyr(Me)^10, His^11, Orn^12, Abu^15, His^20, Orn^21, Nle^27, D-Arg^28, Har^29]hGH-RH(1-29)NH2 [Peptide 11435]
Tumor growth inhibition after 4 weeks (%) [1]: 75.11% | Tumor growth after 4 weeks (%) [2]: 4170 ± 2064% | Inhibition (%) [2]: 47.17%

[(Dca-Ada)^0-Tyr^1, D-Arg^2, Cpa^6, Ala^8, Har^9, Tyr(Me)^10, His^11, Abu^15, His^20, Nle^27, D-Arg^28, Har^29]hGH-RH(1-29)NH2 [Peptide 11123]
Tumor growth after 28 days (%) [4]: 786% | Tumor growth after 46 days (%) [4]: 1849% | Inhibition (%) ([4]; after 28 days): 42.57% | Inhibition (%) ([4]; after 46 days): 44.48% | Tumor growth inhibition after 4 weeks (%) [5]: 35.74% | Inhibition of H-460 lung tumor growth compared with reference peptide JMR-132 [5]: more potently inhibited the growth of H-460 lung tumors than the reference peptide JMR-132
